Viability and Activity data for 3 molecules are collected here from ChEMBL document CHEMBL3769391, “Identification of a new cyathane diterpene that induces mitochondrial and autophagy-dependent apoptosis and shows a potent in vivo anti-colorectal cancer activity” (Eur J Med Chem, 2016).

Holding throughout (assay type): functional
For experiment [1], the system named is HCT-116. Description: Induction of apoptosis in human HCT116 cells assessed as viable cells at […] after 24 hrs by Annexin V-FITC/propidium iodide staining based flow cytometry (reference value: 93.64%). The conditions noted are these: HCT-116, 24 h, read-out: Activity.
Experiment [2] concerns HCT-116. Briefly: Induction of apoptosis in human HCT116 cells assessed as early apoptotic cells at […] after 24 hrs by Annexin V-FITC/propidium iodide staining based flow cytometry (reference value: 2.2%). (Flow cytometry measures light scatter and fluorescence of single cells or particles in a stream.)
Experiment [3] concerns HCT-116. Briefly: Induction of apoptosis in human HCT116 cells assessed as late apoptotic cells at […] after 24 hrs by Annexin V-FITC/propidium iodide staining based flow cytometry (reference value: 3.73%).
Experiment [4] deals with HCT-116. Briefly: Induction of apoptosis in human HCT116 cells assessed as necrotic cells at […] after 24 hrs by Annexin V-FITC/propidium iodide staining based flow cytometry (reference value: 0.44%).
Experiment [5] has as its system HCT-116. Briefly: Induction of apoptosis in Bax deficient human HCT116 cells assessed as early apoptotic cells at […] after 24 hrs by Annexin V-FITC/propidium iodide staining based flow cytometry (reference value: 0.85%).
Experiment [6] relates to HCT-116. Description: Induction of apoptosis in Bax deficient human HCT116 cells assessed as late apoptotic cells at […] after 24 hrs by Annexin V-FITC/propidium iodide staining based flow cytometry (reference value: 1.56%).
Experiment [7] relates to HCT-116. Briefly: Induction of apoptosis in human HCT116 cells assessed as early apoptotic cells at 10 uM after 12 hrs by Annexin V-FITC/propidium iodide staining based flow cytometry (reference value: 1.13%).
Experiment [8] concerns HCT-116. Description: Induction of apoptosis in human HCT116 cells assessed as late apoptotic cells at 10 uM after 12 hrs by Annexin V-FITC/propidium iodide staining based flow cytometry (reference value: 3.37%).

Consider `OC(CS)C(O)CS` (racemic) [DL-DITHIOTHREITOL], for which the viability in experiment [1] came out at 88%. In addition, the Activity turned out to be 3.12% in experiment [2]; 8.67% in experiment [3]; 0.21% in experiment [4]; 2.99% in experiment [5]; 3.5% in experiment [6].
On to `CC(=O)N[C@@H](CS)C(=O)O` [ACETYLCYSTEINE], for which the viability in experiment [1] stood at 91.8%. In addition, the Activity is 1.86% in experiment [2]; 5.62% in experiment [3]; 0.7% in experiment [4]; 1.21% in experiment [5]; 1.75% in experiment [6].
As for `CO[C@H]1C(C=O)=CC[C@@H]2C3=C(C(C)C)CC[C@]3(C)CC[C@@]2(C)[C@H]1O`, the Activity is given as 3.83% in experiment [7] and 3.68% in experiment [8].
